Measurements as given in DBAASP.
≈ marks a conversion by molar mass, not a printed value.

Experiments:
Test in all cases: ≥ marks a high value that may be exact or a test limit, other limits are often not marked, values filed in µg/mL are converted to µM
[1] = system: Bacillus subtilis
[2] = system: Escherichia coli
[3] = system: Klebsiella pneumoniae
[4] = system: Micrococcus luteus
[5] = system: Proteus mirabilis
[6] = system: Pseudomonas aeruginosa
[7] = system: Salmonella typhimurium
[8] = system: Shigella dysenteriae
[9] = system: Staphylococcus aureus
[10] = system: Staphylococcus epidermidis
[11] = system: Bacillus cereus
[12] = system: Leuconostoc lactis
[13] = system: Listeria innocua
[14] = system: Pasteurella multocida
[15] = system: Streptococcus uberis
[16] = system: Escherichia coli K-12
[17] = system: Staphylococcus aureus USA 300
[18] = system: Candida albicans
[19] = system: Saccharomyces cerevisiae
[20] = system: Serratia marcescens

Structure (SMILES) | MIC [1] [µM] | MIC [2] [µM] | MIC [3] [µM] | MIC [4] [µM] | MIC [5] [µM] | MIC [6] [µM] | MIC [7] [µM] | MIC [8] [µM] | MIC [9] [µM] | MIC [10] [µM] | MIC [11] [µM] | MIC [12] [µM] | MIC [13] [µM] | MIC [14] [µM] | MIC [15] [µM] | MIC [16] [µM] | MIC [17] [µM] | MIC [18] [µM] | MIC [19] [µM] | MIC [20] [µM]
CC[C@H](C)[C@H](NC(=O)[C@H](CO)NC(=O)CNC(=O)[C@@H](NC(=O)[C@H](CC(C)C)NC(=O)CN)[C@@H](C)CC)C(=O)NCC(=O)N[C@@H](CCCCN)C(=O)N[C@@H](C)C(=O)N[C@@H](CC(C)C)C(=O)NCC(=O)NCC(=O)N[C@@H](CC(C)C)C(=O)N[C@@H](CC(C)C)C(=O)N[C@H](C(=O)N[C@@H](CC(=O)O)C(=O)N[C@H](C(=O)N[C@@H](CC(C)C)C(=O)N[C@@H](CCCCN)C(=O)N1CCC[C@H]1C(=O)N[C@@H](CCCCN)C(=O)N[C@@H](CC(C)C)C(=O)N[C@@H](CCC(N)=O)C(=O)N[C@@H](C)C(=O)N[C@@H](C)C(=O)N[C@@H](CO)C(=O)O)C(C)C)C(C)C [GLIGSIGKALGGLLVDVLKPKLQAAS] |  | > 39.7 |  | ≥ 39.7 |  |  |  |  | > 39.7 | ≥ 39.7 | ≥ 39.7 | ≥ 39.7 | ≥ 39.7 | ≥ 39.7 | ≥ 39.7 |  |  |  |  | 
CC[C@H](C)[C@H](NC(=O)[C@@H](NC(=O)[C@H](CO)NC(=O)[C@H](C)NC(=O)[C@@H](NC(=O)[C@H](CCCCN)NC(=O)[C@H](CCCCN)NC(=O)[C@@H](NC(=O)[C@@H](NC(=O)[C@H](CC(=O)O)NC(=O)[C@H](Cc1ccccc1)NC(=O)[C@H](CC(C)C)NC(=O)CN)C(C)C)[C@@H](C)CC)C(C)C)C(C)C)C(=O)NCC(=O)N[C@@H](CC(C)C)C(=O)N[C@@H](C)C(=O)N[C@@H](CO)C(=O)N1CCC[C@H]1C(=O)O [GLFDVIKKVASVIGLASP] |  | > 55.1 |  | ≥ 55.1 |  |  |  |  | > 55.1 | ≥ 55.1 | ≥ 55.1 | 27.6 (≈ 50 µg/mL) | ≥ 55.1 | ≥ 55.1 | ≥ 55.1 |  |  |  |  | 
CC[C@H](C)[C@H](NC(=O)[C@H](CC(C)C)NC(=O)CNC(=O)[C@H](CO)NC(=O)[C@@H](NC(=O)[C@H](CC(C)C)NC(=O)[C@@H](N)CC(N)=O)C(C)C)C(=O)N[C@@H](CCC(=O)O)C(=O)N[C@@H](C)C(=O)N[C@@H](CCCNC(=N)N)C(=O)N[C@@H](CCCCN)C(=O)N[C@@H](Cc1ccc(O)cc1)C(=O)N[C@@H](CC(C)C)C(=O)N[C@@H](CCC(=O)O)C(=O)N[C@@H](CCC(N)=O)C(=O)N[C@@H](CC(C)C)C(=O)N[C@@H](Cc1cnc[nH]1)C(=O)N[C@@H](CCCNC(=N)N)C(=O)N[C@@H](CCCCN)C(=O)N[C@@H](CC(C)C)C(=O)N[C@@H](CCCCN)C(=O)N[C@@H](CC(N)=O)C(=O)N[C@@H](CCCNC(=N)N)C(=O)N[C@@H](CCCCN)C(=O)N[C@H](C(=O)O)C(C)C [NLVSGLIEARKYLEQLHRKLKNRKV] |  |  |  |  |  |  |  |  |  |  |  |  |  |  |  | ≥ 92 | ≥ 92 |  |  | 
CC[C@H](C)[C@H](NC(=O)[C@H](CC(=O)O)NC(=O)[C@H](Cc1ccccc1)NC(=O)[C@H](CC(C)C)NC(=O)CN)C(=O)N[C@H](C(=O)N[C@@H](CCCCN)C(=O)N[C@@H](CCCCN)C(=O)N[C@H](C(=O)N[C@@H](C)C(=O)N[C@@H](CO)C(=O)N[C@H](C(=O)N[C@H](C(=O)NCC(=O)NCC(=O)N[C@@H](CC(C)C)C(N)=O)[C@@H](C)CC)C(C)C)C(C)C)[C@@H](C)CC [GLFDIIKKVASVIGGL] |  | > 61.4 |  | 7.36 (≈ 12 µg/mL) |  |  |  |  | 15.3 (≈ 25 µg/mL) | 15.3 (≈ 25 µg/mL) | 15.3 (≈ 25 µg/mL) | 3.68 (≈ 6 µg/mL) | 15.3 (≈ 25 µg/mL) | ≥ 61.4 | 7.36 (≈ 12 µg/mL) |  |  |  |  | 
CC[C@H](C)[C@H](NC(=O)CN)C(=O)N[C@@H](CC(C)C)C(=O)N[C@@H](CC(=O)O)C(=O)N[C@H](C(=O)N[C@@H](CC(C)C)C(=O)N[C@@H](CCCCN)C(=O)N[C@@H](CCC(N)=O)C(=O)N[C@@H](Cc1ccccc1)C(=O)N[C@@H](C)C(=O)N[C@@H](CCCCN)C(=O)NCC(=O)N[C@H](C(=O)NCC(=O)N[C@@H](CCCCN)C(=O)N[C@@H](CC(=O)O)C(=O)N[C@@H](CC(C)C)C(=O)N[C@H](C(=O)N[C@@H](CCCCN)C(=O)NCC(=O)N[C@@H](C)C(=O)N[C@@H](C)C(=O)N[C@@H](CCC(N)=O)C(=O)NCC(=O)N[C@H](C(=O)N[C@@H](CC(C)C)C(=O)N[C@@H](CO)C(=O)N[C@H](C(=O)O)[C@@H](C)O)C(C)C)C(C)C)C(C)C)[C@@H](C)O [GILDTLKQFAKGVGKDLVKGAAQGVLST] | 17.8 (≈ 50 µg/mL) | 8.88 (≈ 25 µg/mL) |  | 0.888 (≈ 2.5 µg/mL) | ≥ 35.5 | 17.8 (≈ 50 µg/mL) | 26.6 (≈ 75 µg/mL) | 8.88 (≈ 25 µg/mL) |  | 17.8 (≈ 50 µg/mL) |  |  |  |  |  |  |  | > 35.5 | 8.88 (≈ 25 µg/mL) | ≥ 35.5
CC(C)C[C@H](NC(=O)[C@H](C)NC(=O)CNC(=O)[C@H](CC(C)C)NC(=O)[C@@H](N)Cc1ccccc1)C(=O)N[C@@H](Cc1ccccc1)C(=O)N[C@@H](CCCCN)C(=O)N[C@H](C(=O)N[C@@H](C)C(=O)N[C@@H](CO)C(=O)N[C@@H](CCCCN)C(=O)O)C(C)C [FLGALFKVASK] | ≥ 169 | > 169 | > 169 | ≥ 169 | ≥ 169 | > 169 | ≥ 169 | ≥ 169 | > 169 | ≥ 169 |  |  |  |  |  |  |  |  |  | 
CC(C)C[C@H](NC(=O)CNC(=O)[C@H](CC(C)C)NC(=O)[C@@H](N)Cc1ccccc1)C(=O)N[C@@H](CC(C)C)C(=O)N[C@@H](Cc1ccccc1)C(=O)N[C@@H](CCCCN)C(=O)N[C@H](C(=O)N[C@@H](C)C(=O)N[C@@H](CO)C(=O)N[C@@H](CCCCN)C(=O)O)C(C)C [FLGLLFKVASK] | ≥ 40.9 | 164 (≈ 200 µg/mL) | 81.8 (≈ 100 µg/mL) | 10.2 (≈ 12.5 µg/mL) | ≥ 164 | > 164 | ≥ 164 | ≥ 164 | 20.4 (≈ 25 µg/mL) | ≥ 40.9 |  |  |  |  |  |  |  |  |  | 

Other lines, results leading:

MIC [1] [µM] | MIC [2] [µM] | MIC [3] [µM] | MIC [4] [µM] | MIC [5] [µM] | MIC [6] [µM] | MIC [7] [µM] | MIC [8] [µM] | MIC [9] [µM] | MIC [10] [µM] | MIC [11] [µM] | MIC [12] [µM] | MIC [13] [µM] | MIC [14] [µM] | MIC [15] [µM] | MIC [16] [µM] | MIC [17] [µM] | MIC [18] [µM] | MIC [19] [µM] | MIC [20] [µM] | Structure (SMILES)
8.54 (≈ 12.5 µg/mL) | 4.3 (≈ 6.3 µg/mL) | 2.12 (≈ 3.1 µg/mL) | 2.12 (≈ 3.1 µg/mL) | ≥ 137 | 17.1 (≈ 25 µg/mL) | 8.54 (≈ 12.5 µg/mL) | 4.3 (≈ 6.3 µg/mL) | 2.12 (≈ 3.1 µg/mL) | 2.12 (≈ 3.1 µg/mL) |  |  |  |  |  |  |  |  |  |  | CC(C)C[C@H](NC(=O)[C@@H](NC(=O)[C@H](CCCCN)NC(=O)[C@H](CO)NC(=O)[C@H](C)NC(=O)[C@@H](NC(=O)[C@H](CCCCN)NC(=O)[C@H](Cc1ccccc1)NC(=O)[C@H](CC(C)C)NC(=O)[C@H](C)NC(=O)[C@H](CCCCN)NC(=O)[C@H](CC(C)C)NC(=O)[C@@H](N)Cc1ccccc1)C(C)C)C(C)C)C(=O)O [FLKALFKVASKVL]
 | > 63.5 |  | ≥ 63.5 |  |  |  |  | > 63.5 | ≥ 63.5 | ≥ 63.5 | 15.9 (≈ 25 µg/mL) | ≥ 63.5 | ≥ 63.5 | ≥ 63.5 |  |  |  |  |  | CC[C@H](C)[C@H](NC(=O)[C@@H](NC(=O)[C@H](CO)NC(=O)[C@H](C)NC(=O)[C@@H](NC(=O)[C@H](CCCCN)NC(=O)[C@H](CCCCN)NC(=O)[C@@H](NC(=O)[C@@H](NC(=O)[C@H](CC(=O)O)NC(=O)[C@H](Cc1ccccc1)NC(=O)[C@H](CC(C)C)NC(=O)CN)C(C)C)[C@@H](C)CC)C(C)C)C(C)C)C(=O)NCC(=O)NCC(=O)N[C@@H](C)C(N)=O [GLFDVIKKVASVIGGA]
 |  |  |  |  |  |  |  |  |  |  |  |  |  |  | ≥ 106 |  |  |  |  | CC[C@H](C)[C@H](NC(=O)[C@H](CCCCN)NC(=O)[C@H](CCC(N)=O)NC(=O)[C@@H](NC(=O)[C@@H](NC(=O)[C@H](CCCCN)NC(=O)[C@@H](N)CCCCN)[C@@H](C)CC)C(C)C)C(=O)N[C@@H](CCCCN)C(=O)N[C@@H](CC(=O)O)C(=O)N[C@@H](Cc1ccccc1)C(=O)N[C@@H](CC(C)C)C(=O)N[C@@H](CCCCN)C(N)=O [KKIVQKIKDFLK]
 | 60.8 (≈ 99.9 µg/mL) |  | ≥ 60.8 |  |  |  |  | > 60.8 | ≥ 60.8 | ≥ 60.8 | 7.29 (≈ 12 µg/mL) | 30.4 (≈ 50 µg/mL) | ≥ 60.8 | ≥ 60.8 |  |  |  |  |  | CC[C@H](C)[C@H](NC(=O)[C@H](CCCCN)NC(=O)[C@H](CO)NC(=O)[C@H](C)NC(=O)[C@@H](NC(=O)[C@H](CCCCN)NC(=O)[C@H](CCCCN)NC(=O)[C@@H](NC(=O)[C@@H](NC(=O)[C@H](CC(=O)O)NC(=O)[C@H](Cc1ccccc1)NC(=O)[C@H](CC(C)C)NC(=O)CN)C(C)C)[C@@H](C)CC)C(C)C)C(=O)NCC(=O)NCC(=O)N[C@@H](CC(C)C)C(N)=O [GLFDVIKKVASKIGGL]
